Source: patent US6239111A, “In vivo method of improving survival rate of brain neurons” (Wakunaga Pharmaceutical Co., Ltd., priority 1996, dated 2001)
Like-named read-outs stand apart in the source and are kept apart here.

Experiments:
[1] = tested on: hippocampus neurons; assay: Inhibition of reduction in survival rate of rat embryonic hippocampus neurons in serum-free culture; format: cell-based; conditions: for viability at 1 µg/mL / viability at 0.1 µg/mL / viability at 0.01 µg/mL / viability at 0.001 µg/mL / viability at 0.0001 µg/mL: Rattus norvegicus, Neuron, 72 h, read-out: survival rate of neurons (control group taken as 100%); for viability at 1 µg/mL: 10^-6 g/ml; for inhibitory effect against reduction in survival rate of hippocampus neurons (in words): within the range of 1-1,000 ng/ml
Excerpt: From a rat at the 18th day of pregnancy (having an 18-day old embryo) the uterus was aseptically removed under etherification, and the fetus was obtained. The whole brain was collected from the fetus. From the brain placed in an L-15 medium, the hippocampus was separated under a microscope and minced with a knife. […] The thus-isolated cells were suspended in Eagle's MEM medium supplemented with 10% fetal calf serum, and inoculated at a concentration of 4×10^4 cells/cm^2 into wells of a 48-well plate which had been coated with poly-L-lysin in advance. […] After three-days' additional incubation, the cells were fixed, stained, and the number of surviving cells in each well was counted.
When the survival rate of the neurons in the control group was taken as 100%: […]

[2] = Oral acute toxicity (LD50) in rats; conditions: rat, in vivo, oral administration
[3] = Oral acute toxicity (LD50) in mice; conditions: mouse, in vivo, oral administration
[4] = tested on: neurites of hippocampus cells; assay: Branching promotion effect on neurites of hippocampus cells; format: cell-based, rat; conditions: number of branches from the longest neurite, one and two days after addition, FIG. 1
Procedure: The hippocampus cells obtained in a manner similar to that in Example 1 were incubated for 24 hours in a medium containing fetal calf serum, then for further 24 hours in a serum-free medium. Subsequently, compound (1-1) was added. When compound (1-1) was added, and at the times of one and two days after addition, photographs were taken of the same cells. The number of branches from the longest neurite was counted.

[5] = three days' incubation, serum-free medium
[6] = 10^-7 g/ml, three days' incubation, serum-free medium
[7] = 10^-8 g/ml, three days' incubation, serum-free medium
[8] = 10^-9 g/ml, three days' incubation, serum-free medium
[9] = 10^-10 g/ml, three days' incubation, serum-free medium

| Compound | viability at 1 µg/mL [1, 5] [%] | viability at 0.1 µg/mL [1, 6] [%] | viability at 0.01 µg/mL [1, 7] [%] | viability at 0.001 µg/mL [1, 8] [%] | inhibitory effect against reduction in survival rate of hippocampus neurons (in words) [1] | other results |
| --- | --- | --- | --- | --- | --- | --- |
| C=CCSC[C@H](NC(=O)CC[C@H](N)C(=O)O)C(=O)O [(1-6)] | 130 to 150 | 130 to 150 | 130 to 150 | 90 to 110 |  | viability at 0.0001 µg/mL [1, 9]: 90 to 110% |
| N[C@@H](CS)C(=O)O [L-cysteine, reference compound] |  |  |  |  | No inhibitory effect |  |
| C=CCS(=O)(=O)C[C@H](N)C(=O)O [(1-3)] | 130 to 150 | 110 to 130 | 110 to 130 | 110 to 130 |  |  |
| C=CC[S+]([O-])C[C@H](N)C(=O)O (stereo partly drawn) [(1-2)] | 130 to 150 | 130 to 150 | 110 to 130 | 110 to 130 |  | viability at 0.0001 µg/mL [1, 9]: 90 to 110% |
| CCCSCCC [dipropylsulfide, reference compound] |  |  |  |  | No inhibitory effect |  |
| C=CCSC(CC(=O)O)C(=O)O (stereo not drawn) [(1-13)] | 110 to 130 | 110 to 130 | 90 to 110 |  |  |  |
| C=CCO [allyl alcohol, reference compound] |  |  |  |  | No inhibitory effect |  |
| C=CCSSC[C@H](N)C(=O)O [(1-4)] | 90 to 110 | 130 to 150 | 110 to 130 | 90 to 110 |  | viability at 0.0001 µg/mL [1, 9]: 90 to 110% |
| CCCSC[C@H](N)C(=O)O [S-propyl-L-cysteine, reference compound] |  |  |  |  | No inhibitory effect |  |
| C=CCSCC=C [(1-11)] | 110 to 130 | 110 to 130 | 110 to 130 | 90 to 110 |  | viability at 0.0001 µg/mL [1, 9]: 90 to 110% |
| C=CCc1ccc(O)c(OC)c1 [eugenol, reference compound] |  |  |  |  | No inhibitory effect |  |
| CC=CSC[C@H](N)C(=O)O [S-(1-propenyl)-L-cysteine, reference compound] |  |  |  |  | No inhibitory effect |  |
| C[S+]([O-])C[C@H](N)C(=O)O (stereo partly drawn) [S-methyl-L-cysteinesulfoxide, reference compound] |  |  |  |  | No inhibitory effect |  |
| C=CCS [(1-10)] | 110 to 130 | 110 to 130 | 110 to 130 | 90 to 110 |  | viability at 0.0001 µg/mL [1, 9]: 90 to 110% |
| C=CCNCC(=O)O [allyl glycine, reference compound] |  |  |  |  | No inhibitory effect |  |
| C=CCSSCC=C [(1-12)] |  |  |  |  |  | viability at 0.0001 µg/mL [1]: 90 to 110%; viability at 0.001 µg/mL [1]: 90 to 110%; viability at 0.01 µg/mL [1]: 110 to 130%; viability at 0.1 µg/mL [1]: 110 to 130% |
| CSC[C@H](N)C(=O)O [S-methyl-L-cysteine, reference compound] |  |  |  |  | No inhibitory effect |  |
| C=CCSc1ccccc1C(=O)O [(1-14)] | 110 to 130 | 110 to 130 | 90 to 110 |  |  |  |
| C=CCSC[C@H](NC(=O)CC[C@H](N)C(=O)O)C(=O)NCC(=O)O [(1-7)] | 130 to 150 | 130 to 150 | 90 to 110 | 90 to 110 |  | viability at 0.0001 µg/mL [1, 9]: 90 to 110% |
| C=CCSC[C@H](NC(C)=O)C(=O)O [(1-5)] | 110 to 130 | 110 to 130 | 110 to 130 | 90 to 110 |  |  |
| CCCSC[C@H](NC(=O)CC[C@H](N)C(=O)O)C(=O)O [gamma-glutamyl-S-propyl-L-cysteine, reference compound] |  |  |  |  | No inhibitory effect |  |
| C=CCSC[C@H](N)C(=O)O [Compound (1-1)] | 130 to 150 | 130 to 150 | 110 to 130 | 110 to 130 |  | LD50 [2]: ≥ 1000 mg/kg; LD50 [3]: ≥ 1000 mg/kg; branching promotion effect on neurites [4]: confirmed to have branching promotion effect on neurites; viability at 0.0001 µg/mL [1, 9]: 90 to 110% |
| C#CCSC[C@H](N)C(=O)O [S-propargyl-L-cysteine, reference compound] |  |  |  |  | No inhibitory effect |  |
| C=CCNC(N)=O [N-allyl urea, reference compound] |  |  |  |  | No inhibitory effect |  |
| C=CCOCC=C [diallyl ether, reference compound] |  |  |  |  | No inhibitory effect |  |
| C=CCCSC[C@H](N)C(=O)O [S-(3-butenyl)-L-cysteine, reference compound] |  |  |  |  | No inhibitory effect |  |
| C=CCOC(=O)[C@@H](N)CS [O-allyl-L-cysteine, reference compound] |  |  |  |  | No inhibitory effect |  |
| C=CCSCC[C@H](N)C(=O)O [(1-9)] | 90 to 110 | 110 to 130 | 90 to 110 |  |  |  |
| CCCSSCCC [dipropyldisulfide, reference compound] |  |  |  |  | No inhibitory effect |  |
| C=CCSc1nc2ccccc2o1 [(1-15)] | 110 to 130 | 110 to 130 | 90 to 110 |  |  |  |
